For assay [1], the system named is AKT, p-AKT, Annexin A2, PCNA in liver tissue. In words: Western blotting of liver tissue, DEN-induced liver cancer mouse model. The class given is in vivo, C57BL/6 mouse. The following applies: DEN+SAL liver tissue. The method, then:
(§1) 5×10^5 cells of Human-derived liver cancer cell lines SK-Hep1 and SNU387 are cultured in a 60 mm culture vessel, the cells are lysed, and proteins are separated through electrophoresis. And after that, western blotting analysis is performed by using a specific antibody. After treatment of the SK-Hep1 and the SNU387 with the salsolinol at different times and concentrations, the cells are washed with PBS, and the cells are scraped off with a scraper. The cells are lysed in a lysis buffer for 1 hour, and after that, centrifuge separation is performed at 13,000 rpm for 15 minutes at 4° C., and only the supernatant is extracted. 20 μg of protein contained in the supernatant is electrophoresed on SDS-polyacrylamide gel, and after that, transferred to a PVDF membrane for 2 hours. The sample reacts with antibodies pSTAT3(#9145), STAT3(#9132), PCNA(#2586), 15-PGDH(cayman No. 160615), p53(sc-126), p53(sc-99), pAKT(#9271), AKT(#9272), Annexin A2(#8235), and GAPDH(sc-32233). The protein is detected by using an enhanced chemiluminascence (ECL) detection solution.
The salsolinol (200 mg/kg) is administered for 6 months through intraperitoneal injection three times per week from the time when the DEN-induced liver cancer mouse model (male) became 7 weeks of age. After the mouse is sacrificed, the experiment is performed.
The normal mouse, the DEN-induced liver cancer mouse model, and the DEN-induced liver cancer mouse model administered with the salsolinol are sacrificed, the livers are excised, the liver tissues are crushed, and the proteins are extracted. After separating the extracted protein through electrophoresis, the expression levels of tumor-related genes AKT, p-AKT, Annexin A2, and PCNA and the changes in the expression levels are analyzed by using a Western blotting method (refer to FIG. 9).
(Immunoblotting shows a protein as a band on a membrane.)

In assay [2] the test system is Snai1, Vimentin genes in liver tissue. In words: Real-time quantitative PCR of liver tissue, DEN-induced liver cancer mouse model. The class given is in vivo, C57BL/6 mouse. The following applies: DEN+SAL liver tissue, corrected with β-actin. The method, then:
A normal mouse (M-Ctrl, n=5), a DEN-induced liver cancer mouse model (M-DEN, n=4), and a DEN-induced liver cancer mouse model treated with the salsolinol (M-DEN+SAL, n=5) are sacrificed, and liver tissues are obtained. And after that, trizol is added to lyse the liver tissues. 1 ml of a TRI reagent solution is added to the liver tissue, and after homogenization, centrifuge separation is performed at 4° C. and 12,000 rpm for 10 minutes. About 0.75 ml of the middle layer excluding the upper and lower debris is separated and put into a new tube. […]
After removing the supernatant, the RNA is washed with 75% ethanol, centrifuge separation is performed at 4° C. at 7,500 rpm for 5 minutes, and the remaining ethanol is evaporated at room temperature. The separated total RNA is quantified by using Nandrop 2000 (Thermo), and after that, cDNA is synthesized by using a reverse transcription reaction oligo dT primer and RT enzyme. By using the synthesized cDNA as a template, after addition of each primer and Bio-Rad SYBR mix (#1725270) and amplification by using a Bio-Rad Real-Time PCR instrument, analysis is performed by using quantitative software. The products amplified by real time PCR are quantified by using a comparative cycle threshold (Ct) method. […]

Assay [3] concerns STAT3, pSTAT3, PCNA, 15-PGDH, p53 in SNU387. In words: Western blotting of tumor-related genes in SNU387. The class given is cell-based, human. The conditions noted are these: SNU387, 25 μM salsolinol, 72 hours. The method, then:
as §1, with “solution. As a result of the above-described experiment, it is confirmed that the activity of cells in the liver cancer cell lines SK-Hep1 is decreased by the salsolinol, and particularly, the specificity for the liver cancer cell lines is confirmed. In order to check the correlation between the decrease in the activity of cells of the liver cancer cell lines by the salsolinol and the gene expression, the SK-Hep1 which is a liver cancer cell line and the SNU387 which is a liver cancer cell line are cultured, and the samples are treated with 25 μM of salsolinol d for 72 hours. After the treatment, changes in the expression levels of tumor-related genes such as STAT3, pSTAT3, PCNA, 15-PGDH, and p53 are checked (refer to FIG. 4).” for “solution.”

From US11628164B2, “Composition containing salsolinol for treating liver cancer” (SUNGSHIN WOMEN'S UNIVERSITY R&DB FOUNDATION, priority 2020, dated 2023) come the findings set out here.

Consider `CC1NCCc2cc(O)c(O)cc21` (stereo not shown) [salsolinol, 6,7-dihydroxy-1-methyl-1,2,3,4-tetrahydroisoquinoline], for which, in assay [1], the “Annexin A2 expression level” value is on record as “decreased”, the PCNA expression level entry is “decreased to the level of the normal mouse” and the “degree of phosphorylation of AKT (p-AKT)” value is “decreased to the level of the normal mouse”. In assay [2], the “Snai1 gene expression level” value was “decreased to the expression level of expression in the normal mouse” and the “Vimentin gene expression level” value is reported as “decreased to the expression level of expression in the normal mouse”. Also, in assay [3], the 15-PGDH expression level entry is given as “remains constant”, the PCNA expression level entry is “rather increased”, the STAT3 expression level result was “remains constant” and the p53 expression level entry is recorded as “not changed”. Further, the pSTAT3 expression level entry in assay [3] is on record as “not decreased”.
